Legend:
G3BP1 NFT2 = type: binding, human; conditions: library DMS-CoV, bait G3BP1 NFT2, prey N, listed as aa = residue placed at this position, column sums to 1
PABPC1 PABC = type: binding, human; conditions: DMS-BM library, bait PABPC1 PABC, row aa = residue at this position; for DMS-derived PSSM value (averaged), position R12: R = wild type
[1] = prey ATXN2, TLNPNAKEFNPRSF(averaged) over the two overlapping peptides, N = wild type
[2] = prey ATXN2, TLNPNAKEFNPRSF(averaged) over the two overlapping peptides
[3] = prey ATXN2, peptide TLNPNAKEFNPRSFSQ, F = wild type
[4] = prey ATXN2, peptide TLNPNAKEFNPRSFSQ, P = wild type
[5] = prey ATXN2, TLNPNAKEFNPRSF(averaged) over the two overlapping peptides, A = wild type
[6] = prey ATXN2, peptide KSTLNPNAKEFNPRSF, S = wild type
[7] = prey ATXN2, peptide TLNPNAKEFNPRSFSQ, N = wild type
[8] = prey ATXN2, TLNPNAKEFNPRSF(averaged) over the two overlapping peptides, S = wild type
[9] = prey ATXN2, peptide KSTLNPNAKEFNPRSF, N = wild type

For “RNAPRITFGGPSDSTG D13N (RNAPRITFGGPSNSTG)”, the “DMS PSSM value, D (position 13)” value (G3BP1 NFT2; peptide RNAPRITFGGPSDSTG) was 0.

With APRITFGGPSDSTGSN P9R (APRITFGGRSDSTGSN) the “DMS PSSM value, P (position 9)” value (G3BP1 NFT2; peptide APRITFGGPSDSTGSN) was 0.

In the case of “RNAPRITFGGPSDSTG T15Q (RNAPRITFGGPSDSQG)”, the “DMS PSSM value, T (position 15)” value (G3BP1 NFT2; peptide RNAPRITFGGPSDSTG) is reported as 0.

APRITFGGPSDSTGSN G7N (APRITFNGPSDSTGSN) was tested, and the “DMS PSSM value, G (position 7)” value (G3BP1 NFT2; peptide APRITFGGPSDSTGSN) was 0.

For APRITFGGPSDSTGSN I4M (APRMTFGGPSDSTGSN), the “DMS PSSM value, I (position 4)” value (G3BP1 NFT2; peptide APRITFGGPSDSTGSN) was 0.

With RNAPRITFGGPSDSTG F8S (RNAPRITSGGPSDSTG) the “DMS PSSM value, F (position 8)” value (G3BP1 NFT2; peptide RNAPRITFGGPSDSTG) was 0.

With “TLNPNAKEFNPRSF(averaged) N10P (TLNPNAKEFPPRSF)” the “DMS-derived PSSM value (averaged), position N10” value (PABPC1 PABC; [1]) was 0.03074.

“TLNPNAKEFNPRSF(averaged) N3S (TLSPNAKEFNPRSF)” was tested, and the “DMS-derived PSSM value (averaged), position N3” value (PABPC1 PABC; [1]) was 0.2635.

“TLNPNAKEFNPRSF(averaged) R12Q (TLNPNAKEFNPQSF)” was tested, and the “DMS-derived PSSM value (averaged), position R12” value (PABPC1 PABC; [2]) was 0.05602.

“TLNPNAKEFNPRSF(averaged) N3E (TLEPNAKEFNPRSF)” was tested, and the “DMS-derived PSSM value (averaged), position N3” value (PABPC1 PABC; [1]) was 0.

In the case of “TLNPNAKEFNPRSF(averaged) E8I (TLNPNAKIFNPRSF)”, the “DMS-derived PSSM value (averaged), position E8” value (PABPC1 PABC; prey ATXN2, TLNPNAKEFNPRSF(averaged) over the two overlapping peptides, E = wild type) is reported as 0.006482.

With TLNPNAKEFNPRSFSQ F9N (TLNPNAKENNPRSFSQ) the “DMS-derived PSSM value, position F9” value (PABPC1 PABC; [3]) was 0.

For KSTLNPNAKEFNPRSF P6W (KSTLNWNAKEFNPRSF), the “DMS-derived PSSM value, position P6” value (PABPC1 PABC; prey ATXN2, peptide KSTLNPNAKEFNPRSF, P = wild type) was 0.

With “TLNPNAKEFNPRSFSQ S15K (TLNPNAKEFNPRSFKQ)” the “DMS-derived PSSM value, position S15” value (PABPC1 PABC; prey ATXN2, peptide TLNPNAKEFNPRSFSQ, S = wild type) was 0.007327.

In the case of TLNPNAKEFNPRSFSQ P4H (TLNHNAKEFNPRSFSQ), the “DMS-derived PSSM value, position P4” value (PABPC1 PABC; [4]) is reported as 0.0297.

For “TLNPNAKEFNPRSF(averaged) N10G (TLNPNAKEFGPRSF)”, the “DMS-derived PSSM value (averaged), position N10” value (PABPC1 PABC; [1]) was 0.02059.

For “TLNPNAKEFNPRSF(averaged) N5Y (TLNPYAKEFNPRSF)”, the “DMS-derived PSSM value (averaged), position N5” value (PABPC1 PABC; [1]) was 0.004226.

In the case of “TLNPNAKEFNPRSF(averaged) A6N (TLNPNNKEFNPRSF)”, the “DMS-derived PSSM value (averaged), position A6” value (PABPC1 PABC; [5]) is reported as 0.

For KSTLNPNAKEFNPRSF A8Y (KSTLNPNYKEFNPRSF), the “DMS-derived PSSM value, position A8” value (PABPC1 PABC; prey ATXN2, peptide KSTLNPNAKEFNPRSF, A = wild type) was 0.

With “TLNPNAKEFNPRSF(averaged) R12N (TLNPNAKEFNPNSF)” the “DMS-derived PSSM value (averaged), position R12” value (PABPC1 PABC; [2]) was 0.02727.

In the case of “TLNPNAKEFNPRSF(averaged) A6D (TLNPNDKEFNPRSF)”, the “DMS-derived PSSM value (averaged), position A6” value (PABPC1 PABC; [5]) is reported as 0.

TLNPNAKEFNPRSFSQ P4K (TLNKNAKEFNPRSFSQ) was tested, and the “DMS-derived PSSM value, position P4” value (PABPC1 PABC; [4]) was 0.

In the case of KSTLNPNAKEFNPRSF S2F (KFTLNPNAKEFNPRSF), the “DMS-derived PSSM value, position S2” value (PABPC1 PABC; [6]) is reported as 0.06555.

KSTLNPNAKEFNPRSF S2D (KDTLNPNAKEFNPRSF) was tested, and the “DMS-derived PSSM value, position S2” value (PABPC1 PABC; [6]) was 0.01347.

TLNPNAKEFNPRSFSQ N3K (TLKPNAKEFNPRSFSQ) was tested, and the “DMS-derived PSSM value, position N3” value (PABPC1 PABC; [7]) was 0.

With TLNPNAKEFNPRSFSQ F9Q (TLNPNAKEQNPRSFSQ) the “DMS-derived PSSM value, position F9” value (PABPC1 PABC; [3]) was 0.

In the case of “TLNPNAKEFNPRSF(averaged) S13F (TLNPNAKEFNPRFF)”, the “DMS-derived PSSM value (averaged), position S13” value (PABPC1 PABC; [8]) is reported as 0.01382.

For “TLNPNAKEFNPRSF(averaged) S13M (TLNPNAKEFNPRMF)”, the “DMS-derived PSSM value (averaged), position S13” value (PABPC1 PABC; [8]) was 0.01383.

“TLNPNAKEFNPRSF(averaged) L2S (TSNPNAKEFNPRSF)” was tested, and the “DMS-derived PSSM value (averaged), position L2” value (PABPC1 PABC; prey ATXN2, TLNPNAKEFNPRSF(averaged) over the two overlapping peptides, L = wild type) was 0.

For “TLNPNAKEFNPRSF(averaged) F9Y (TLNPNAKEYNPRSF)”, the “DMS-derived PSSM value (averaged), position F9” value (PABPC1 PABC; prey ATXN2, TLNPNAKEFNPRSF(averaged) over the two overlapping peptides, F = wild type) was 0.1609.

With “TLNPNAKEFNPRSF(averaged) K7Q (TLNPNAQEFNPRSF)” the “DMS-derived PSSM value (averaged), position K7” value (PABPC1 PABC; prey ATXN2, TLNPNAKEFNPRSF(averaged) over the two overlapping peptides, K = wild type) was 0.01764.

KSTLNPNAKEFNPRSF K9E (KSTLNPNAEEFNPRSF) was tested, and the “DMS-derived PSSM value, position K9” value (PABPC1 PABC; prey ATXN2, peptide KSTLNPNAKEFNPRSF, K = wild type) was 0.0298.

With “TLNPNAKEFNPRSF(averaged) T1K (KLNPNAKEFNPRSF)” the “DMS-derived PSSM value (averaged), position T1” value (PABPC1 PABC; prey ATXN2, TLNPNAKEFNPRSF(averaged) over the two overlapping peptides, T = wild type) was 0.01914.

TLNPNAKEFNPRSFSQ A6S (TLNPNSKEFNPRSFSQ) was tested, and the “DMS-derived PSSM value, position A6” value (PABPC1 PABC; prey ATXN2, peptide TLNPNAKEFNPRSFSQ, A = wild type) was 0.08307.

With “TLNPNAKEFNPRSFSQ N10S (TLNPNAKEFSPRSFSQ)” the “DMS-derived PSSM value, position N10” value (PABPC1 PABC; [7]) was 0.03126.

In the case of “TLNPNAKEFNPRSF(averaged) N5P (TLNPPAKEFNPRSF)”, the “DMS-derived PSSM value (averaged), position N5” value (PABPC1 PABC; [1]) is reported as 4.119e-5.

With “KSTLNPNAKEFNPRSF N12P (KSTLNPNAKEFPPRSF)” the “DMS-derived PSSM value, position N12” value (PABPC1 PABC; [9]) was 0.

KSTLNPNAKEFNPRSF N7T (KSTLNPTAKEFNPRSF) was tested, and the “DMS-derived PSSM value, position N7” value (PABPC1 PABC; [9]) was 0.001519.
